Data published in patent publication US8815535B2, “Disk diffusion assay for oritavancin” (The Medicines Company, priority 2011, dated 2014).
Where two headings read alike, the source gives them in different places.

Experiments:
hVISA NRS2 = test: Disk diffusion assay (zone of inhibition); type: cell-based, Staphylococcus aureus; conditions: Staphylococcus aureus, NRS2, NRS2; for zone of inhibition at 200 µg/disc: 200 μg in 4% P80/Span 80 (1:1)
Source text: (§1) The study was designed to identify conditions that improve oritavancin diffusion in agar and consequently yield a zone diameter ≧15 mm for the CLSI quality control strain MSSA ATCC 25923. Excipients that increased the disk diffusion of oritavancin in agar relative to disks containing only oritavancin were identified and selected for further study. […] A prediffusion step at room temperature was introduced to maximize oritavancin diffusion prior to initiation of bacterial growth. In this step, the antimicrobial disks were placed on agar plates seeded with a bacterial isolate and incubated at room temperature for 3 hours. Plates were then incubated overnight at 37° C. Zone diameters around the disks in which bacterial growth was inhibited were measured with a ruler and reported in millimeters.
(§2) Ethanol-sterilized Whatman paper disks (6 mm diameter) were allowed to dry then impregnated with 20 microliters of oritavancin solution containing total amounts ranging from 90 to 360 micrograms. Disks were allowed to dry at room temperature for various times prior to use.
(§3) Bacterial suspensions were prepared and adjusted to an optical density of 0.1 at 600 nm. Standard cation-adjusted Mueller Hinton agar plates (90 mm diameter) were seeded with bacterial suspensions by initially swabbing the center of plate then moving outward towards the edge. The plate was swabbed a second time, perpendicular to the orientation of the first swab. To assess the impact of prediffusion on diameter of inhibition zones, two disks were immediately placed on one half of the plate and the plate was incubated for 3 hours at room temperature. After 3 hours, two additional disks were placed on the other half of the plate then the plate was incubated overnight at 37° C. Zone diameters were measured with a ruler and reported in millimeters.
(§4) Oritavancin powder was dissolved in freshly-prepared solutions of the indicated excipients at concentrations of 0.625, 1.25, 2.5, 5, and 10 mg/ml (adjusted for potency based on lot 875561L00 purity of 83.1%) by vortexing for a minimum of 5 minutes. Oritavancin solutions in the various excipients, while not visually clear, were free from any apparent particulates as assessed visually. Sterile Oxoid blank disks were impregnated with 20 μl of these oritavancin solutions, resulting in oritavancin disk loads ranging from 12.5 to 200 μg. Unless indicated otherwise, disks were allowed to dry overnight at room temperature prior to use.
(§5) Bacterial suspensions from isolated colonies on overnight cation-adjusted Mueller Hinton agar plates were prepared in sterile saline and adjusted to an optical density of 0.1 at 600 nm Standard cation-adjusted Mueller Hinton agar plates (90 mm diameter) were seeded with bacterial suspensions by initially swabbing the center of plate then moving outward. Swabbing was continued at a right angle and then at an oblique angle to the first and second swabs. Disks were placed upon the seeded plates with sterile forceps. Plates were then incubated overnight at 37° C. and inhibition zone diameters were measured with a ruler and reported in millimeters.

NRS123 and NRS2 = test: Disk diffusion assay, difference in zone diameter between two isolates; type: cell-based, Staphylococcus aureus
Source text: as §1, §2, §3

MSSA Q141066 = test: Disk diffusion assay (zone of inhibition); type: cell-based; conditions: Staphylococcus aureus, 20 μl of 1.25 mg/ml in 4% P80/Span 80 (1:1), calcium alginate swabs, dried overnight, duplicate, read-out: Inhibition zone diameter
Procedure: as §4, §5

MRSA T998528 = test: Disk diffusion assay (zone of inhibition); type: cell-based; conditions: Staphylococcus aureus, 20 μl of 1.25 mg/ml in 4% P80/Span 80 (1:1), calcium alginate swabs, dried overnight, duplicate, read-out: Inhibition zone diameter
Procedure: as §4, §5

MSSA T759545 = test: Disk diffusion assay (zone of inhibition); type: cell-based; conditions: Staphylococcus aureus, 20 μl of 1.25 mg/ml in 4% P80/Span 80 (1:1), calcium alginate swabs, dried overnight, duplicate, read-out: Inhibition zone diameter
Procedure: as §4, §5

MRSA ATCC 33591 = test: Disk diffusion assay (zone of inhibition); type: cell-based; conditions: Staphylococcus aureus, 25 μg (1.25 mg/ml) in 4% P80/Span 80 (1:1), dried overnight, read-out: Inhibition zone diameter
Procedure: as §4, §5

MSSA U148267 = test: Disk diffusion assay (zone of inhibition); type: cell-based; conditions: Staphylococcus aureus, 20 μl of 1.25 mg/ml in 4% P80/Span 80 (1:1), calcium alginate swabs, dried overnight, duplicate, read-out: Inhibition zone diameter
Procedure: as §4, §5

VISA Mu50 (ATCC 700699) = test: Disk diffusion assay (zone of inhibition); type: cell-based; conditions: Staphylococcus aureus, Oxoid disks, 20 μl of 18 mg/ml oritavancin in 5% P80, stored 30 days at room temperature, prediffusion 6 hours at 4° C., read-out: Inhibition zone diameter

In the case of CN[C@H](CC(C)C)C(=O)N[C@H]1C(=O)N[C@@H](CC(N)=O)C(=O)N[C@H]2C(=O)N[C@H]3C(=O)N[C@H](C(=O)N[C@H](C(=O)O)c4cc(O)cc(O)c4-c4cc3ccc4O)[C@H](O[C@H]3C[C@](C)(N)[C@@H](O)[C@H](C)O3)c3ccc(c(Cl)c3)Oc3cc2cc(c3O[C@@H]2O[C@H](CO)[C@@H](O)[C@H](O)[C@H]2O[C@H]2C[C@](C)(NCc3ccc(-c4ccc(Cl)cc4)cc3)[C@@H](O)[C@H](C)O2)Oc2ccc(cc2Cl)[C@H]1O [oritavancin, N-(4-(4-chlorophenyl)benzyl)A82846B], the zone of inhibition at 1250 µg/mL (hVISA NRS2; 25 μg (20 μl of 1.25 mg/ml) in 4% P80/Span 80 (1:1), calcium alginate swab, dried overnight, read-out: Inhibition zone diameter) is reported as 16 mm, the zone of inhibition at 25 µg/disc (hVISA NRS2; 25 μg in 4% P80/Span 80 (1:1), cotton swab, dried overnight, estimate of diameter) is reported as 17 mm and the zone of inhibition at 50 µg/disc (hVISA NRS2; 50 μg in 4% P80/Span 80 (1:1), calcium alginate swab, dried overnight, read-out: Inhibition zone diameter) is reported as 15 mm. For the same compound, the zone of inhibition at 50 µg/disc (hVISA NRS2; 50 μg in 4% P80/Span 80 (1:1), cotton swab, dried overnight, estimate of diameter) was 17 mm, the zone of inhibition at 50 µg/disc (hVISA NRS2; 50 μg, 4% P80/Span 80 ratio 50:50, dried overnight, estimate of diameter) was 16 mm and the zone of inhibition at 50 µg/disc (hVISA NRS2; 50 μg, 4% P80/Span 80 ratio 60:40, dried overnight, estimate of diameter) was 15 mm. For the same compound, the zone of inhibition at 50 µg/disc (hVISA NRS2; 50 μg, 4% P80/Span 80 ratio 70:30, dried overnight, estimate of diameter) was 14 mm, the zone of inhibition at 50 µg/disc (hVISA NRS2; 50 μg, 4% P80/Span 80 ratio 80:20, dried overnight, estimate of diameter) was 14 mm and the zone of inhibition at 50 µg/disc (hVISA NRS2; 50 μg, 4% P80/Span 80 ratio 90:10, dried overnight, estimate of diameter) was 12 mm. It also gave a zone of inhibition at 100 µg/disc (hVISA NRS2; 100 μg in 4% P80/Span 80 (1:1), calcium alginate swab, dried overnight, read-out: Inhibition zone diameter) of 11 mm, a zone of inhibition at 200 µg/disc (hVISA NRS2; calcium alginate swab, dried overnight, read-out: Inhibition zone diameter) of 10 mm and a zone of inhibition at 200 µg/disc (hVISA NRS2; cotton swab, dried overnight, estimate of diameter) of 13 mm. For the same compound, the zone of inhibition at 360 µg/disc (hVISA NRS2; 360 μg in 5% P80, Average of experiments, no prediffusion, read-out: Zone diameter (mm ± SD)) was 14.9 ± 0.8 mm, the zone of inhibition at 360 µg/disc (hVISA NRS2; 360 μg in 5% P80, Average of experiments, prediffusion, read-out: Zone diameter (mm ± SD)) was 17.3 ± 0.3 mm and the zone of inhibition at 360 µg/disc (hVISA NRS2; 360 μg in 5% P80, Experiment 1, disks stored 14 days, 3 h prediffusion at room temperature, read-out: Zone diameter (mm ± SD)) was 17.5 mm. The zone of inhibition at 360 µg/disc (hVISA NRS2; 360 μg in 5% P80, Experiment 2, disks stored 8 days, 3 h prediffusion at room temperature, read-out: Zone diameter (mm ± SD)) was 17 mm, the zone of inhibition at 360 µg/disc (hVISA NRS2; 360 μg oritavancin, excipient 5% P80, disks stored 5 days at room temperature, 3 h prediffusion, average of 2 disks, read-out: Average zone diameter) was 17.8 mm and the zone of inhibition at 1250 µg/mL (hVISA NRS2; 20 μl of 1.25 mg/ml oritavancin in 1% poly(ethylene glycol) sorbitol hexaoleate, read-out: Inhibition zone diameter) was 9 mm. For the same compound, the zone of inhibition at 1250 µg/mL (hVISA NRS2; 20 μl of 1.25 mg/ml oritavancin in 5% Brij 30, read-out: Inhibition zone diameter) was 8 mm, the zone of inhibition at 1250 µg/mL (hVISA NRS2; 20 μl of 1.25 mg/ml oritavancin in 5% Merpol SE, read-out: Inhibition zone diameter) was 11 mm and the “Difference in diameter (NRS2 subtracted from NRS123)” value (“Difference in diameter” for short) (NRS123 and NRS2; 90 μg oritavancin, 2.5% P80) was 1.8 mm. For the same compound, the “Difference in diameter” value (NRS123 and NRS2; 90 μg oritavancin, 5% P80) was 1 mm, the “Difference in diameter” value (NRS123 and NRS2; 90 μg oritavancin, 10% P80) was −0.3 mm and the “Difference in diameter” value (NRS123 and NRS2; 180 μg oritavancin, 2.5% P80) was 1.7 mm. For the same compound, the “Difference in diameter” value (NRS123 and NRS2; 180 μg oritavancin, 5% P80) was 1.3 mm, the “Difference in diameter” value (NRS123 and NRS2; 180 μg oritavancin, 10% P80) was 1.3 mm and the “Difference in diameter” value (NRS123 and NRS2; 360 μg oritavancin, 2.5% P80) was 1.8 mm. The “Difference in diameter” value (NRS123 and NRS2; 360 μg oritavancin, 5% P80) was 0.5 mm, the “Difference in diameter” value (NRS123 and NRS2; 360 μg oritavancin, 10% P80) was 1 mm and the zone of inhibition at 1250 µg/mL (MSSA Q141066) was 20 mm. It also gave a zone of inhibition at 1250 µg/mL (MRSA T998528) of 21 mm, a zone of inhibition at 1250 µg/mL (MSSA T759545) of 22 mm and a zone of inhibition at 25 µg/disc (MRSA ATCC 33591) of 22 mm. The zone of inhibition at 1250 µg/mL (MSSA U148267) was 21 mm and the zone of inhibition at 18000 µg/mL (VISA Mu50 (ATCC 700699)) was 13 mm.
